The values that follow come from ChEMBL document CHEMBL1145186, “Extravascular transport of drugs in tumor tissue: effect of lipophilicity on diffusion of tirapazamine analogues in multicellular layer cultures” (J Med Chem, 2005).

The data set is described as follows: Partition coefficient (logP) of the compound. The class given is physicochemical.

`COCCc1cccc(Nc2n[n+]([O-])c3ccccc3[n+]2[O-])c1` yielded a logP of 1.51.
For the compound `[O-][n+]1nc(Nc2ccccc2)[n+]([O-])c2ccccc21`, the log partition coefficient (logP) came to 1.43.
In the case of `Nc1n[n+]([O-])c2cc(Cl)ccc2[n+]1[O-]`, the logP is 0.441.
The compound `Cc1cccc2c1[n+]([O-])nc(N)[n+]2[O-]` came in with a logP of 0.24.
In the case of `CCN(CC)c1cccc2c1[n+]([O-])nc(N)[n+]2[O-]`, the log partition coefficient (logP) came to 0.83.
For `Cc1ccc2c(c1)[n+]([O-])nc(N)[n+]2[O-]` the value was 0.127; for `CS(=O)(=O)c1cccc2c1[n+]([O-])nc(N)[n+]2[O-]`, -1.38; for `Nc1n[n+]([O-])c2cccc(Cl)c2[n+]1[O-]`, -0.102.
The value for `Nc1n[n+]([O-])c2c(C(F)(F)F)cccc2[n+]1[O-]` was 0.48; that for `Nc1n[n+]([O-])c2cc(C(F)(F)F)ccc2[n+]1[O-]` was 0.82.
`Cc1ccc2c(c1)[n+]([O-])c(N)n[n+]2[O-]` came in with a logP of 0.068.
Compound `CS(=O)(=O)c1ccc2c(c1)[n+]([O-])nc(N)[n+]2[O-]` returned a logP of -1.15.
The value for `Nc1n[n+]([O-])c2c(Cl)cccc2[n+]1[O-]` was 0.166.
Compound `O=c1c2ccccc2[nH]c2ccccc12` [ACRIDONE] registered a logP of 2.98.
For `OC[C@@H](O)[C@@H](O)[C@H](O)[C@H](O)CO` [MANNITOL] the value was -2.62; for `Nc1n[n+]([O-])c2ccccc2[n+]1[O-]` [TIRAPAZAMINE], -0.342; for `NC(N)=O` [UREA], -2.01.

For orientation: logP means the decadic logarithm of the partition coefficient of the neutral form, usually between octanol and water.
